## Oc1cc(O)c2cc(O)c(-c3cc(O)c(O)c(O)c3)[o+]c2c1.[Cl-]
In acetone, 298.15 K
  solubility (mole fraction): 5.5e-11
In acetone, 303.15 K
  solubility (mole fraction): 6.6e-11
In acetone, 308.15 K
  solubility (mole fraction): 7.1e-11
In acetone, 313.15 K
  solubility (mole fraction): 7.7e-11
In acetone, 318.15 K
  solubility (mole fraction): 8.7e-11
In acetone, 323.15 K
  solubility (mole fraction): 9.8e-11
In acetone, 328.15 K
  solubility (mole fraction): 1.06e-10
In acetone, 333.15 K
  solubility (mole fraction): 1.24e-10
In acetone, 338.15 K
  solubility (mole fraction): 1.35e-10
In acetone, 343.15 K
  solubility (mole fraction): 1.57e-10
In ethanol, 298.15 K
  solubility (mole fraction): 5.73e-08
In ethanol, 303.15 K
  solubility (mole fraction): 6.13e-08
In ethanol, 308.15 K
  solubility (mole fraction): 7.04e-08
In ethanol, 313.15 K
  solubility (mole fraction): 7.7e-08
In ethanol, 318.15 K
  solubility (mole fraction): 8.59e-08
In ethanol, 323.15 K
  solubility (mole fraction): 9.8e-08
In ethanol, 328.15 K
  solubility (mole fraction): 1.06e-07
In ethanol, 333.15 K
  solubility (mole fraction): 1.23e-07
In ethanol, 338.15 K
  solubility (mole fraction): 1.37e-07
In ethanol, 343.15 K
  solubility (mole fraction): 1.56e-07
In methanol, 298.15 K
  solubility (mole fraction): 5.86e-07
In methanol, 303.15 K
  solubility (mole fraction): 6.62e-07
In methanol, 308.15 K
  solubility (mole fraction): 7.71e-07
In methanol, 313.15 K
  solubility (mole fraction): 8.77e-07
In methanol, 318.15 K
  solubility (mole fraction): 9.71e-07
In methanol, 323.15 K
  solubility (mole fraction): 1.05e-06
In methanol, 328.15 K
  solubility (mole fraction): 1.26e-06
In methanol, 333.15 K
  solubility (mole fraction): 1.4e-06
In methanol, 338.15 K
  solubility (mole fraction): 1.53e-06
In methanol, 343.15 K
  solubility (mole fraction): 1.69e-06
In water, 298.15 K
  solubility (mole fraction): 5.35e-07
In water, 303.15 K
  solubility (mole fraction): 6.39e-07
In water, 308.15 K
  solubility (mole fraction): 6.98e-07
In water, 313.15 K
  solubility (mole fraction): 7.87e-07
In water, 318.15 K
  solubility (mole fraction): 8.69e-07
In water, 323.15 K
  solubility (mole fraction): 1.02e-06
In water, 328.15 K
  solubility (mole fraction): 1.11e-06
In water, 333.15 K
  solubility (mole fraction): 1.24e-06
In water, 338.15 K
  solubility (mole fraction): 1.48e-06
In water, 343.15 K
  solubility (mole fraction): 1.64e-06
